According to patent publication US12655150B2 (Cedilla Therapeutics, Inc., priority 2021, dated 2026):

system: NCI-H226; assay: 72H TEAD Proliferation Assay (Cell Titer Glo 2.0); type: cell-based; settings: Homo sapiens, NCI-H226, 72 h, CTG 2.0, cell line not given (NCI-H226 responsive, NCI-H28 non-responsive)
How it was run: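 Growth read-out is ATP luminescence (CellTiter-Glo 2.0) after 72 h compound exposure, corrected for no-CTG background and day-0 values, with GI50 from nonlinear regression. Sensitive line NCI-H226 (NF2-deficient); non-responsive NCI-H28 (NF2 wild type) distinguishes TEAD-driven from nonspecific growth inhibition.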

Compound	GI50 [nM]
COc1cc(-c2ccc(C(F)(F)F)cc2)nc2cc(C(=O)NC3(CO)CC3)ccc12 [I-353, N-(1-(hydroxymethyl)cyclopropyl)-4-methoxy-2-(4-(trifluoromethyl)phenyl)quinoline-7-carboxamide]	1000 to 5000
CN(C)C(=O)c1ccc2c(c1)nc(-c1ccc(C(C)(C)C)cc1)c1nccn12 [I-74, 4-(4-(tert-Butyl)phenyl)-N,N-dimethylimidazo[1,2-a]quinoxaline-7-carboxamide]	5000 to 10000
CC[C@H](CO)NC(=O)c1ccc2c(OC)cc(-c3ccc(C(F)(F)F)cc3C)nc2c1 [I-336, (R)—N-(1-hydroxybutan-2-yl)-4-methoxy-2-(2-methyl-4-(trifluoromethyl)phenyl)quinoline-7-carboxamide]	≤ 1000
C[C@H](CO)NC(=O)c1ccc2c(C3CC3)cc(-c3ccc(C(F)(F)F)cc3)nc2c1 [I-386, (R)-4-cyclopropyl-N-(1-hydroxypropan-2-yl)-2-(4-(trifluoromethyl)phenyl)quinoline-7-carboxamide]	≤ 1000
COc1cc(-c2ccc(C(F)(F)F)cc2F)nc2cc(C(=O)N[C@H](C)CO)ccc12 [I-337, (R)-2-(2-fluoro-4-(trifluoromethyl)phenyl)-N-(1-hydroxypropan-2-yl)-4-methoxyquinoline-7-carboxamide]	≤ 1000
O=C(O)c1ccc2c(c1)nc(OC1CCC(C(F)(F)F)CC1)c1cccn12 (mixture of isomers) [I-127, 4-((4-(Trifluoromethyl)cyclohexyl)oxy)pyrrolo[1,2-a]quinoxaline-7-carboxylic acid]	1000 to 5000
CCOc1cc(-c2ccc(C(F)(F)F)cc2)nc2cc(C(=O)O)ccc12 [I-393, 4-ethoxy-2-(4-(trifluoromethyl)phenyl)quinoline-7-carboxylic acid]	≤ 1000
O=C(O)c1cc2nc(N3CCC4(CC3)CC4)c3cccn3c2cn1 [I-281, 6-(6-azaspiro[2.5]octan-6-yl)pyrido[4,3-e]pyrrolo[1,2-a]pyrazine-3-carboxylic acid]	1000 to 5000
COC(=O)c1ccc2c(c1)nc(-c1ccc(C(C)(C)C)cc1)c1cccn12 [Compound I-164]	> 10000
O=C(O)c1ccc2c(c1)nc(N1CCC(C(F)(F)F)C1)c1cccn12 (stereo not shown) [I-10, 4-(3-(Trifluoromethyl)pyrrolidin-1-yl)pyrrolo[1,2-a]quinoxaline-7-carboxylic acid]	1000 to 5000
COCC(C)CC(=O)N1CCc2c(cccc2-c2ccc(C(F)(F)F)cc2)C1 (stereo not shown) [I-137, 4-Methoxy-3-methyl-1-(5-(4-(trifluoromethyl)phenyl)-3,4-dihydroisoquinolin-2(1H)-yl)butan-1-one]	1000 to 5000
COc1cc(-c2ccc(C(F)(F)F)cc2)nc2cc(C(=O)O)ccc12 [I-181, 4-methoxy-2-(4-(trifluoromethyl)phenyl)quinoline-7-carboxylic acid]	≤ 1000
Cc1cc2c(-c3ccc(C(F)(F)F)cn3)nc3cc(C(=O)O)ccc3n2c1 [I-405, 2-Methyl-4-(5-(trifluoromethyl)pyridin-2-yl)pyrrolo[1,2-a]quinoxaline-7-carboxylic acid]	≤ 1000
COc1cc(-c2ccc(C(F)(F)F)cn2)nc2cc(C(=O)O)ccc12 [I-361, 4-methoxy-2-(5-(trifluoromethyl)pyridin-2-yl)quinoline-7-carboxylic acid]	1000 to 5000
C=CC(=O)NCc1cn2ccnc2c(Nc2ccc(C(F)(F)F)cn2)n1 [I-170, N-((8-((5-(trifluoromethyl)pyridin-2-yl)amino)imidazo[1,2-a]pyrazin-6-yl)methyl)acrylamide]	≤ 1000
COc1cc(C(F)(F)F)ccc1-c1nc2cc(C(=O)O)ccc2n2cccc12 [I-55, 4-(2-Methoxy-4-(trifluoromethyl)phenyl)pyrrolo[1,2-a]quinoxaline-7-carboxylic acid]	5000 to 10000
O=C(O)c1ccc2c(c1)nc(-c1ccc(OC(F)(F)F)cc1)c1cccn12 [I-192, 4-(4-(trifluoromethoxy)phenyl)pyrrolo[1,2-a]quinoxaline-7-carboxylic acid]	≤ 1000
C=CC(=O)Nc1ccc2c(C)cc(-c3ccc(C(F)(F)F)cc3F)nc2c1 [I-90, N-(2-(2-fluoro-4-(trifluoromethyl)phenyl)-4-methylquinolin-7-yl)acrylamide]	≤ 1000
C=CC(=O)NCc1nc(-c2ccc(C(F)(F)F)cc2)cn2ccnc12 [I-408, N-((6-(4-(trifluoromethyl)phenyl)imidazo[1,2-a]pyrazin-8-yl)methyl)acrylamide]	≤ 1000
C[C@@H](CO)NC(=O)c1ccc2c(c1)nc(-c1ccc(C(C)(C)C)cc1)c1cccn12 [I-190, (S)-4-(4-(tert-butyl)phenyl)-N-(1-hydroxypropan-2-yl)pyrrolo[1,2-a]quinoxaline-7-carboxamide]	1000 to 5000
O=C(O)c1ccc2c(c1)nc(N1CCC3(CC1)CC3)c1cncn12 [I-116, 4-(6-Azaspiro[2.5]octan-6-yl)imidazo[1,5-a]quinoxaline-7-carboxylic acid]	> 10000
CC(C)(C)c1ccc(-c2cncc3c(C(=O)O)c[nH]c23)cc1 [I-97, 7-(4-(tert-Butyl)phenyl)-1H-pyrrolo[3,2-c] pyridine-3-carboxylic acid]	> 10000

Compound	GI50 [nM]
COCc1cc(-c2ccc(C(F)(F)F)cc2)nc2cc(C(=O)O)ccc12 [I-270, 4-(methoxymethyl)-2-(4-(trifluoromethyl)phenyl)quinoline-7-carboxylic acid]	≤ 1000
CC(C)(C)c1ccc(-c2nc3cc(C(=O)NCCO)ccc3n3cccc23)cc1 [I-185, 4-(4-(tert-butyl)phenyl)-N-(2-hydroxyethyl)pyrrolo[1,2-a]quinoxaline-7-carboxamide]	1000 to 5000
COc1cc(-c2ccc(C(F)(F)F)cc2)nc2cc(C(=O)N[C@@H](CO)c3ccccc3)ccc12 [I-345, (R)—N-(2-hydroxy-1-phenylethyl)-4-methoxy-2-(4-(trifluoromethyl)phenyl)quinoline-7-carboxamide]	≤ 1000
CC(C)(C)c1ccc(-c2nc3cc(CO)ccc3n3ccnc23)cc1 [I-77, (4-(4-(tert-Butyl)phenyl)imidazo[1,2-a]quinoxalin-7-yl)methanol]	> 10000
Cc1cc(-c2ccc(OC(F)(F)F)cc2)nc2cc(C(=O)O)ccc12 [I-256, 4-methyl-2-(4-(trifluoromethoxy)phenyl)quinoline-7-carboxylic acid]	1000 to 5000
C=CC(=O)NC(C)c1cn2ccnc2c(-c2ccc(C(C)(C)C)cc2)n1 (stereo not shown) [I-142, N-(1-(8-(4-(tert-butyl)phenyl)imidazo[1,2-a]pyrazin-6-yl)ethyl)acrylamide]	≤ 1000
O=C(O)c1cnc2c(c1)nc(N1CCC3(CC1)CC3)c1cccn12 [I-138, 6-(6-Azaspiro[2.5]octan-6-yl)pyrido[3,2-e]pyrrolo[1,2-a]pyrazine-3-carboxylic acid]	1000 to 5000
CC(C)(C)c1ccc(-c2nc(/C=C/c3nnn[nH]3)cn3ccnc23)cc1 [I-155, (E)-6-(2-(1H-tetrazol-5-yl)vinyl)-8-(4-(tert-butyl)phenyl)imidazo[1,2-a]pyrazine]	> 10000
CN(CCCC(F)(F)F)c1nc2cc(C(=O)O)ccc2n2cccc12 [I-125, 4-(Methyl(4,4,4-trifluorobutyl)amino)pyrrolo[1,2-a]quinoxaline-7-carboxylic acid]	> 10000
O=C(O)c1ccc2c(c1)nc(N1CCC3(CCOCC3)CC1)c1cccn12 [I-27, 4-(3-Oxa-9-azaspiro [5.5]undecan-9-yl) pyrrolo[1,2-a] quinoxaline-7-carboxylic acid]	1000 to 5000
CC(C)Oc1cc(-c2ccc(C(F)(F)F)cc2)nc2cc(C(=O)O)ccc12 [I-394, 4-isopropoxy-2-(4-(trifluoromethyl)phenyl)quinoline-7-carboxylic acid]	≤ 1000
O=C(O)c1ccc2c(c1)nc(OCc1ccc(C(F)(F)F)cc1)c1cccn12 [I-130, 4-((4-(Trifluoromethyl)benzyl)oxy)pyrrolo[1,2-a]quinoxaline-7-carboxylic acid]	> 10000
C#Cc1cc(-c2ccc(C(F)(F)F)cc2)nc2cc(C(=O)O)ccc12 [I-402, 4-ethynyl-2-(4-(trifluoromethyl)phenyl)quinoline-7-carboxylic acid]	≤ 1000
O=C(O)c1ccc2c(c1)nc(N1CCC3(CC1)COC3)c1cccn12 [I-29, 4-(2-Oxa-7-azaspiro[3.5]nonan-7-yl)pyrrolo[1,2-a]quinoxaline-7-carboxylic acid]	> 10000
C=CC(=O)Nc1ccc2c(c1)nc(-c1ccc(C(F)(F)F)cc1F)c1cccn12 [I-114, N-(4-(2-Fluoro-4-(trifluoromethyl)phenyl)pyrrolo[1,2-a]quinoxalin-7-yl) acrylamide]	≤ 1000
Cc1cc(-c2ccc(C(F)(F)F)cc2)nc2cc(C(=O)NC(C)CO)ccc12 (stereo not shown) [I-260, N-(1-hydroxypropan-2-yl)-4-methyl-2-(4-(trifluoromethyl)phenyl)quinoline-7-carboxamide]	≤ 1000
COC[C@H](C)NC(=O)c1ccc2c(C)cc(-c3ccc(C(F)(F)F)cc3)nc2c1 [I-263, (S)—N-(1-methoxypropan-2-yl)-4-methyl-2-(4-(trifluoromethyl)phenyl)quinoline-7-carboxamide]	≤ 1000
C=CC(=O)Nc1cc(-c2ccc(C(C)(C)C)cc2)nc2cc(C(=O)O)ccc12 [I-103, 4-Acrylamido-2-(4-(tert-butyl)phenyl)quinoline-7-carboxylic acid]	> 10000
C=CC(=O)N1CC(c2cn3ccnc3c(-c3ccc(C(F)(F)F)cc3)n2)C1 [I-245, 1-(3-(8-(4-(Trifluoromethyl)phenyl)imidazo[1,2-a]pyrazin-6-yl)azetidin-1-yl)prop-2-en-1-one]	≤ 1000
C=CC(=O)Nc1c(C)nc2c(-c3ccc(C(C)(C)C)cc3)nccn12 [I-257, N-(8-(4-(tert-butyl)phenyl)-2-methylimidazo[1,2-a]pyrazin-3-yl)acrylamide]	5000 to 10000
Cc1nc2ccc(C(=O)O)cc2nc1-c1ccc(C(F)(F)F)cc1 [I-422, 2-methyl-3-(4-(trifluoromethyl)phenyl)quinoxaline-6-carboxylic acid]	5000 to 10000
